Experimental data reported in patent publication US6846625B1, “Method for identifying validated target and assay combination for drug development” (priority 1998, dated 2005).
Like-named read-outs stand apart in the source and are kept apart here. Ends that are not written are not given here. Peptide text beside a SMILES is read from it.

Experiments:
E. coli ProRS = target: T1, E. coli ProRS (Escherichia coli, UniProt P16659); assay: E. coli ProRS tRNA charging (aminoacylation) inhibition; format: biochemical; conditions: read-out: K, (inhibition of E. coli ProRS aminoacylation activity)
T1 construct: made in house
T1 sequence (P16659 whole entry, looked up): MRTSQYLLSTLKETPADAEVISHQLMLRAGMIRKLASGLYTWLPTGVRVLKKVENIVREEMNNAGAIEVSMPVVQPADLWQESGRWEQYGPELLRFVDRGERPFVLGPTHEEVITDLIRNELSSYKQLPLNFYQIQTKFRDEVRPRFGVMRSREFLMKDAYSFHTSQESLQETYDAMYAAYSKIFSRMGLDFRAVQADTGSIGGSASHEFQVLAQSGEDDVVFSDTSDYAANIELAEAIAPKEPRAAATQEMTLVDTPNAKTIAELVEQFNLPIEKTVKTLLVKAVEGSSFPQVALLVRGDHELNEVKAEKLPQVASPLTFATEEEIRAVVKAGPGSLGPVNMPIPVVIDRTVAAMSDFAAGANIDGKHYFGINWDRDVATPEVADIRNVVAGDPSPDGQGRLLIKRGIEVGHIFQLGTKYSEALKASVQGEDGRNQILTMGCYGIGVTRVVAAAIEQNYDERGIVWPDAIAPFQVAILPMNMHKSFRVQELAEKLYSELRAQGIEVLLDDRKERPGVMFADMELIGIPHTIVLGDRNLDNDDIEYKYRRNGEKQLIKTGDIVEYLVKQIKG
Source text: In order to produce pure protein for peptide selection, the E. coli ProRS gene (Genbank accession number: M97858) was PCR amplified and cloned into the pET-20b vector (Novagen) using standard molecular cloning protocols (J. Sambrook, et al., Molecular Cloning: A Laboratory Manual, 2nd edition, Cold Spring Harbor Laboratory Press, 1989). The overexpressed ProRS was purified sequentially on Q- and SP-Sepharose columns. […] Thirteen clones from phages that were identified as having a high affinity to ProRS were sequenced. These clones share 4 different sequences, 3 of which are closely related (Table l). See Example 4 of WO98/19162, published 7 May 1998.
The peptide having sequence number 3 was synthesized and tested for inhibition of tRNA charging activity of E. coli ProRS. […] This peptide is called Pro-3 (also, Pro3).
The expressed Pro-3/GST fusion protein was purified on a glutathione-agarose affinity column according to a procedure provided by Pharmacia (see, cg., procedures manual from Pharmacia P-L Biochemicals, Inc.: GST Gene Fusion System, regarding use of pGEX expression vectors and glutathione-S-transferase fusion proteins, 1993). The N-terminal sequence of the purified protein was determined by Edman cycles and confirmed to have the expected Pro-3 peptide sequence. […]

[1] = test system: E. coli JM109/pSC/pC^3844; assay: E. coli growth in culture upon regulated expression of Pro-3/GST; format: cell-based, Escherichia coli; conditions: anhydrotetracycline induction, compared with GST alone
Description: Overnight cultures of JM109/pSC cells harboring pC^3844 (JM109/pSC/pC^3844), or pPROTet-GST (same as pC^3844 without the Pro-3 peptide sequence) were diluted 100-fold in fresh LB medium containing 34 μg/mL chloramphenicol and 50 μg/mL spectinomycin. After 2 hours growth at 37° C., 100 μL aliquots of each of these bacterial cultures were transferred to wells of a 96-well microtiter plate, with or without 10 ng of anhydrotetracycline dissolved in 1 μL ethanol. The growth of bacterial cultures, which were constantly under agitation, was monitored with a plate reader (SpectraMAX-250, Molecular Devices).

S. aureus MetRS = S. aureus MetRS (Staphylococcus aureus, UniProt Q5HII6); assay: S. aureus MetRS aminoacylation (functional charging) assay; format: biochemical
Chain of S. aureus MetRS (Q5HII6 whole entry): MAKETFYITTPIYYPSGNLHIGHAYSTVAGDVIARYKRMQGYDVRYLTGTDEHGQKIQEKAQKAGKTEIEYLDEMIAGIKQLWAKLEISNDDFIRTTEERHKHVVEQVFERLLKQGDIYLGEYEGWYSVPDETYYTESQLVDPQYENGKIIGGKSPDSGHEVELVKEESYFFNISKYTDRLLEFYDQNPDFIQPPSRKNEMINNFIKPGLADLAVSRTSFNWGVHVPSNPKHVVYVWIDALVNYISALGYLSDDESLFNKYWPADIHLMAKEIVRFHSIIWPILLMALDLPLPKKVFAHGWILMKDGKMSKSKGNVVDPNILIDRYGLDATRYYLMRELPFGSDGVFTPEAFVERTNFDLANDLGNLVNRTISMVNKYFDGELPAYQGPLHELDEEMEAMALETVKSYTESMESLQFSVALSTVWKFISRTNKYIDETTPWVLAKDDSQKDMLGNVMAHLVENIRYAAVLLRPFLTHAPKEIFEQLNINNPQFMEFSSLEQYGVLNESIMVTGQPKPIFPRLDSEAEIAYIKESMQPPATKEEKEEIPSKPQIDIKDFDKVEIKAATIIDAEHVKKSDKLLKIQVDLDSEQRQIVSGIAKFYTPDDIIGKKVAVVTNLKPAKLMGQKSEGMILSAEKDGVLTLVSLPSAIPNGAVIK
Description: The activity of S. aureus MetRS was monitored by the aminoacylation reaction. The enzyme was diluted in 50 mM HEPES, pH 7.55, 5 mM DTT and 0.01% BSA. A typical 50 μL reaction mixture contained 30 mM HEPES, pH 7.5, 10 mM MgCl2, 30 mM KCl, 90 μM E. coli tRNA, 2 mM ATP and 5 μM [^3H]-methionine (10 Ci/mmol). The reaction was initiated by addition of enzyme at 25° C. At 4 different timepoints, 10 μL of the reaction was quenched into 150 μL cold 5% TCA on a Millipore filter plate. The filter plate is then washed three times with cold 5% TCA followed by water and then ethanol. The filter plate was dried before addition of 100 μL Packard Microscint-20 and counted on a Packard Top-Count microplate scintillation counter.
Inhibition studies were performed for the peptides against two of the substrates, ATP and methionine. This was done at varying concentrations of peptides by holding the concentration of one substrate at its K value (1.5 mM for ATP and 5 μM for methionine), while varying the other substrate concentration around its Km value. The initial velocity data obtained were then analyzed using GraFit.

Sa MetRS = Sa MetRS (Staphylococcus aureus, UniProt Q5HII6); assay: Sa MetRS/Met1-F fluorescence polarization binding assay
Chain of Sa MetRS (Q5HII6 whole entry): as above
Description: A non-radioactive, homogeneous, sensitive fluorescent polarization (FP) assay has been developed for Staphylococcus aureus MetRS (Sa MetRS) and Met1 peptide. FP is a ratiometric detection method which is capable of discriminating between free and bound states of fluorescently labeled tracer based on differences in the rotation rates of the two states. The Sa MetRS FP binding assay involves the incubation of fluorescently labeled Met1 peptide (Met1-F) with purified Sa MetRS. In the bound state, Met1-F is bound to Sa MetRS and an increase in polarization signal is detected using a FP detection system. In the free state, Met1-F is not bound to Sa MetRS and there is a decrease in polarization signal.
A 96-well plate (Costar cat# 3915) was blocked for 1 hour at room temperature with 150 μL/well 2 mg/ml bovine serum albumin (BSA) (FisherBiotech cat# BP1600-100) in 0.1 M NaHCO3. The plate was then washed manually three times with 150 μL/well of TBS (10 mM Tris-HCl pH 8.0, 150 mM NaCl). […] The plate was then read in an LJL Analyst (LJL Biosystems, Sunnyvale Calif.) in fluorescent polarization mode.
The FP assay for Sa MetRS inhibition has been evaluated to see if it is amenable for high throughput screening (HTS) for drug discovery. […] The IC50 for Met1 was tested on the plate in duplicate and the results were consistent with previously determined values. […]

[2] = test system: E. coli JM109/pSC/pC^3844; assay: Lethal i.p. infection in mice, induced in vivo expression of Pro-3; parameters: species or system CD-1 female mice; conditions: E. coli JM109/pSC/pC^3844 10^8 cfu/mouse i.p., i.p. ×2
Source text: Intracellularly expressed Pro-3 was expected to bind to and inhibit a specific essential cellular target in a manner similar to that of an antimicrobial drug. Pro-3 was expected to cure the infection when its expression was induced in an animal model of bacterial infection. An established animal infection model was used to test this concept (C. O. Onyeji et al., Antimicrob. Agents Chemother. 38:1112-1117 (1994)).
Eight groups of CD-1 female mice (5 mice per group, Charles River Laboratories; Wilmington, Mass.) weighing 20-24 g were used in this experiment. The inoculum was prepared from E. coli JM109/pSC/pC^3844 which was cultured at 37° C. for 17 hr in Luria-Bertani broth containing spectinomycin and chloramphenicol, and then 100 μl of the culture was diluted to 1 ml with medium for reading OD at 600 nm (0.2403, the medium as blank). The turbidity of a 0.5 McFarland standard is equivalent to OD6000.1, or 10^8 cfu/ml. Then 3×10^9 cfu (colony-forming units) of E. coli JM109/pSC/pC^3844 (1.25 ml) from the overnight culture were diluted to 15 ml with 0.01 M phosphate buffered saline (Sigma P-0261) containing 8% hog gastric mucin (Sigma M-2378), 100 μg/ml spectinomycin and 68 μg/ml chloramphenicol. Each mouse of groups 1 through 4 was injected with 0.5 ml of the inoculum intraperitoneally (i.p.), equivalent to 1×10^8 cfu/mouse (lethal dose).
(§1) One and four hours after the inoculation, groups 1 and 5 animals received a saline injection i.p. at 10 ml/kg; groups 2, 3 and 4 animals received i.p. injections of anhydrotetracycline at 2, 1 and 0.5 mg/kg (diluted in saline), respectively; groups 6, 7 and 8 received i.p. injections of anhydrotetracycline at 2, 1 and 0.5 mg/kg, respectively. The injection volume for all the animals was 10 ml/kg.

E. coli pPROTet-GST = assay: Lethal i.p. infection in mice, vector control strain; format: in vivo, CD-1 female mice; conditions: E. coli pPROTet-GST 10^8 cfu/mouse i.p., i.p. ×2
Description: Groups 5 through 8 served as vector control. The control inoculum was prepared from E. coli pPROTet-GST whose vector carries a gene encoding glutathione S-transferase, but no Pro-3 peptide. E. coli pPROTet-GST was cultured at 37° C. for 17 hr in Luria-Bertani broth containing spectinomycin and chloramphenicol, and then 100 μl of the culture were diluted to 1 ml with the medium for reading OD at 600 nm (0.2858, the medium as blank). Then 3×10^9 cfu (1.05 ml) from the overnight culture were diluted to 15 ml with 0.01 M phosphate buffered saline containing 8% hog gastic mucin. Each mouse of groups 5 through 8 was injected (i.p.) with E. coli pPROTet-GST inocula equivalent to 1×10^8 cfu/mouse (lethal dose).
as §1

[3] = target: E. coli prolyl-tRNA synthetase (ProRS) (Escherichia coli) (UniProt P16659); assay: cell-based or functional assay
[4] = target: E. coli prolyl-tRNA synthetase (ProRS) (Escherichia coli) (UniProt P16659); assay: inhibition of ProRS enzyme activity, purified fusion protein
[5] = target: T2, E. coli prolyl-tRNA synthetase (ProRS) (Escherichia coli), P16659; assay: inhibition of tRNA charging activity, synthetic peptide
T2 chain: T1 sequence (P16659 whole entry, looked up)

**Q.** What does the source list for “Pro-3/GST: Pro-3 peptide fused through a 4-amino acid linker to glutathione S-transferase (GST), expressed from pC^3844 (SREWHFWRDYNPTSREGGG; also: fused to GST through a linker, GST left off)”?
**A.** Ki (E. coli ProRS): 180 nM; E. coli growth (OD600) upon expression [1]: inhibits E. coli growth

**Q.** With `CSCC[C@H](NC(=O)[C@@H]1CCCN1C(=O)[C@H](Cc1c[nH]c2ccccc12)NC(=O)[C@H](CCCNC(=N)N)NC(=O)[C@H](CC(C)C)NC(=O)[C@H](CCC(N)=O)NC(=O)[C@H](Cc1c[nH]c2ccccc12)NC(=O)[C@@H](NC(=O)[C@H](CC(N)=O)NC(=O)[C@@H]1CCCN1C(=O)[C@@H](N)CC(=O)O)[C@@H](C)O)C(=O)N[C@@H](Cc1c[nH]cn1)C(=O)O` [JT01, DPNTWQLRWPMH] (H-DPNTWQLRWPMH-OH; N-terminus and C-terminus assumed) as the molecule, how does the IC50 (S. aureus MetRS) read?
**A.** 0.2 µM

**Q.** What about the Ki (S. aureus MetRS; Kl (ATP), ATP varied, methionine held at 5 μM) of the same molecule?
**A.** 13 nM

**Q.** And the Ki (S. aureus MetRS; Kl (methionine), methionine varied, ATP held at 1.5 mM)?
**A.** 138 nM

**Q.** What about the IC50 (Sa MetRS) of the same molecule?
**A.** 700 nM

**Q.** What about the solubility of the same molecule?
**A.** > 100 µM

**Q.** Which Ki (S. aureus MetRS; methionine varied, ATP held at 1.5 mM, read-out: Kl (methionine)) does the source give for MWDLPYIWSRPV [JT02] here?
**A.** 1700 nM

**Q.** What does the source list for `Cc1c2c(c(O)c3c(O)cccc13)C(=O)[C@]1(O)C(=O)C(C(N)=O)=C(O)[C@@H](N(C)C)[C@@H]1C2` [Anhydrotetracycline, anhydrotetracycline]?
**A.** Survival (7 days) ([2]; inducer 0.5 mg/kg): 5/5; Survival (7 days) ([2]; inducer 1 mg/kg): 5/5; Survival (7 days) ([2]; inducer 2 mg/kg): 5/5; Survival (7 days) (E. coli pPROTet-GST; inducer 0.5 mg/kg): 0/5; Survival (7 days) (E. coli pPROTet-GST; inducer 1 mg/kg): 0/5; Survival (7 days) (E. coli pPROTet-GST; inducer 2 mg/kg): 0/5

**Q.** Which Charged tRNA (tRNA-Pro) in cells, +Inducer [3] does the source give for SREWHFWRDYNPTSREGGG [Pro-3/GST fusion protein] here?
**A.** 23%

**Q.** And the Charged tRNA (tRNA-Pro) in cells, -Inducer [3]?
**A.** 70%

**Q.** What about the Survival (7 days), mice infected with E. coli JM109/pSC/pC3844, anhydrotetracycline 0.5 mg/kg i.p. x2 [3] of the same molecule?
**A.** 5 of 5 mice

**Q.** And the Survival (7 days), mice infected with E. coli JM109/pSC/pC3844, anhydrotetracycline 1 mg/kg i.p. x2 [3]?
**A.** 5 of 5 mice

**Q.** And the Survival (7 days), mice infected with E. coli JM109/pSC/pC3844, anhydrotetracycline 2 mg/kg i.p. x2 [3]?
**A.** 5 of 5 mice

**Q.** What about the Survival (7 days), mice infected with E. coli JM109/pSC/pC3844, saline (no induction) [3] of the same molecule?
**A.** 0 of 5 mice

**Q.** What about the Ki [4] of the same molecule?
**A.** 180 nM

**Q.** With SREWHFWRDYNPTSR (modifications not checked) [Pro-3 peptide (…)] as the molecule, how does the Ki [5] read?
**A.** 300 nM
